Laboratory results as given in patent US12240844B2 (Voronoi, Inc., priority 2019, dated 2025).
pIC50: −log10 of the molar value.

Tests used:
[1] = target: T1, human GST-CLK1 (129-end) (Homo sapiens, UniProt P49759); assay: GST-CLK1 enzyme inhibition, ADP-Glo kinase assay; format: biochemical; conditions: ATP 10 uM
T1 construct: purified human GST-CLK1 (129-end, Signalchem) enzyme; GST; purchased Signalchem
Procedure, shortened: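 GST-CLK1 (129-end, 3 ng) reacted with 10 uM ATP and substrate in 40 mM Tris-HCl pH 7.4, 20 mM MgCl2, 0.5 mg/mL BSA, 50 uM DTT, 1 h at 25° C. ADP-Glo luminescence normalised to solvent control; IC50 from triplicate data.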

[2] = target: T2, LRRK2, LRRK2 (G2019S), DYRK1, CLK1 and TTK kinases (Homo sapiens, UniProt Q13627); assay: Enzyme IC50 by Kinase HotSpot service (Reaction Biology Corporation), values marked with *; format: biochemical; conditions: DYRK1, ATP 10 uM
T2 construct: other: DYRK1; Kinase HotSpot service (Reaction Biology), ATP 10 uM
Procedure: (§1) Meanwhile, the enzyme IC50 measurement for some compounds was performed using Kinase HotSpot service (Reaction Biology Corporation); during the test, the ATP concentration was 10 uM, where all were conducted under the same condition; and the concentration of the compound was measured by giving a 3-fold concentration gradient with the highest concentration of […], where the values measured using Kinase HotSpot service (Reaction Biology Corporation) were marked with “*”.
(§2) All experimental methods were performed as provided in Kinase HotSpot Customer Protocol (http://www.reactionbiology.com//Kinase_Assay_Protocol).
(§3) In the table below, the following designations were used for the evaluation of enzyme inhibitory ability.

[3] = test system: MDA-MB-231 cell line; assay: MDA-MB-231 cancer cell proliferation inhibition (Cell Titer-Glo); format: cell-based; conditions: Homo sapiens, MDA-MB-231 triple-negative breast cancer cell line, 72 hours
Procedure, shortened: (§4)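 GI50 comes from CellTiter-Glo luminescence, read 10 min after reagent addition at RT, following 72 h compound treatment. Eleven concentrations were used (⅓ steps, highest 10 μM final) on 2000 cells/well. MDA-MB-231 and MDA-MB-468 were grown in DMEM, SHP-77 in RPMI.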

[4] = test system: human DYRK1A and Tau; assay: Tau phosphorylation inhibition, ClariCELL Kinase Cell-Based Assay (Carnabio)
Procedure, shortened: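 HEK293 cells transiently expressing human DYRK1A and Tau were exposed to compound, then lysed. Released Tau was captured on plate and its phosphorylation quantified by ELISA with a phospho-Tau-specific antibody.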

[5] = target: LRRK2 (Homo sapiens, UniProt Q5S007); assay: LRRK2 enzyme inhibition, ADP-Glo kinase assay; format: biochemical; set-up: purchased Invitrogen PR8604B
Chain of LRRK2 (Q5S007 970-2527 limits assumed): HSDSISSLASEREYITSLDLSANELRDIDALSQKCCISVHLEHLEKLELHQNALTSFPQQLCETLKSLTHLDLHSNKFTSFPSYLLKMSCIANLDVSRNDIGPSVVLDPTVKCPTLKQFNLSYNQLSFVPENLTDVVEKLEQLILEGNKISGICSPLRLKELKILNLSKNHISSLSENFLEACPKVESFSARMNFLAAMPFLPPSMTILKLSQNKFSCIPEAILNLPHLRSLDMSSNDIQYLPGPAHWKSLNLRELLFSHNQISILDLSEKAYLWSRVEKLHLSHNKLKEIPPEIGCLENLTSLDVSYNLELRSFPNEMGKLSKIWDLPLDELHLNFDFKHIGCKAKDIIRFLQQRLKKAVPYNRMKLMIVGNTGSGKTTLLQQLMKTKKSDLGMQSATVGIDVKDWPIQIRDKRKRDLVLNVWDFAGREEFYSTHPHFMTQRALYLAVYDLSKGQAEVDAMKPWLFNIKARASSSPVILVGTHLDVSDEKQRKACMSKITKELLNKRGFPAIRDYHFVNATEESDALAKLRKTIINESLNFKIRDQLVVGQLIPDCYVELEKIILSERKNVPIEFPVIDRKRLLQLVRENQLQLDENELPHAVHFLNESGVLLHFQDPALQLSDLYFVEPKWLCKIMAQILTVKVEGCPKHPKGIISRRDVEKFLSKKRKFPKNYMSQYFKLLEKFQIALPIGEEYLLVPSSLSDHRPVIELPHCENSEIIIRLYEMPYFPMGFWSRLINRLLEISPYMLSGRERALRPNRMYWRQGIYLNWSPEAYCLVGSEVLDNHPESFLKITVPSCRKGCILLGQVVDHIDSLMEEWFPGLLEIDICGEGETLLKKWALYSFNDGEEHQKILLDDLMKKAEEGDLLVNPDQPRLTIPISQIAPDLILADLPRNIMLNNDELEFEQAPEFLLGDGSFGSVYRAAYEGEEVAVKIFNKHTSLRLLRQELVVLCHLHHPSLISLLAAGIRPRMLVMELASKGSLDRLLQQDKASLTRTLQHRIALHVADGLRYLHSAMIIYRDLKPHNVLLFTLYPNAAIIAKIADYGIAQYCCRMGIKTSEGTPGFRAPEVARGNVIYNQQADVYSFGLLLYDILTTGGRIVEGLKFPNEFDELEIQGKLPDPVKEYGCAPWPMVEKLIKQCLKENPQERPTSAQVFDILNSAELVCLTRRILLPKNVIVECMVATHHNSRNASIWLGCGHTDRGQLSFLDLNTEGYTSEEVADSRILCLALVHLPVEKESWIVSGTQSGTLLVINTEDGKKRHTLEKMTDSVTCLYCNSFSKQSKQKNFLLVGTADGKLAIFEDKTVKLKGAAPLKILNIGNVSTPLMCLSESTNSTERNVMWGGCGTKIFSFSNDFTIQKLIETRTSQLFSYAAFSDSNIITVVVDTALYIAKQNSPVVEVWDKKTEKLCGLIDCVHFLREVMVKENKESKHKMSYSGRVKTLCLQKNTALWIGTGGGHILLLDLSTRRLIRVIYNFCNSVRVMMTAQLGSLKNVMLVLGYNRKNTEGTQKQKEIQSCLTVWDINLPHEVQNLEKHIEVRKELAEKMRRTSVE
Procedure, shortened: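 Purified human LRRK2 (25 ng) in 40 mM Tris-HCl pH7.4, 20 mM MgCl2, 0.5 mg/ml BSA, 50 μM DTT with 10 μM ATP and substrate ([…]), 2 h at 25° C. Final compound 50 to 0.000001024 μM, 12-point dilution. ADP-Glo luminescence vs solvent control; IC50 (nM).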

[6] = target: T3, TTK (Homo sapiens, UniProt P33981); assay: TTK enzyme inhibition, ADP-Glo kinase assay; format: biochemical; set-up: purchased Signalchem T20-10G; conditions: ATP 5 μM
T3 sequence (P33981 1-857): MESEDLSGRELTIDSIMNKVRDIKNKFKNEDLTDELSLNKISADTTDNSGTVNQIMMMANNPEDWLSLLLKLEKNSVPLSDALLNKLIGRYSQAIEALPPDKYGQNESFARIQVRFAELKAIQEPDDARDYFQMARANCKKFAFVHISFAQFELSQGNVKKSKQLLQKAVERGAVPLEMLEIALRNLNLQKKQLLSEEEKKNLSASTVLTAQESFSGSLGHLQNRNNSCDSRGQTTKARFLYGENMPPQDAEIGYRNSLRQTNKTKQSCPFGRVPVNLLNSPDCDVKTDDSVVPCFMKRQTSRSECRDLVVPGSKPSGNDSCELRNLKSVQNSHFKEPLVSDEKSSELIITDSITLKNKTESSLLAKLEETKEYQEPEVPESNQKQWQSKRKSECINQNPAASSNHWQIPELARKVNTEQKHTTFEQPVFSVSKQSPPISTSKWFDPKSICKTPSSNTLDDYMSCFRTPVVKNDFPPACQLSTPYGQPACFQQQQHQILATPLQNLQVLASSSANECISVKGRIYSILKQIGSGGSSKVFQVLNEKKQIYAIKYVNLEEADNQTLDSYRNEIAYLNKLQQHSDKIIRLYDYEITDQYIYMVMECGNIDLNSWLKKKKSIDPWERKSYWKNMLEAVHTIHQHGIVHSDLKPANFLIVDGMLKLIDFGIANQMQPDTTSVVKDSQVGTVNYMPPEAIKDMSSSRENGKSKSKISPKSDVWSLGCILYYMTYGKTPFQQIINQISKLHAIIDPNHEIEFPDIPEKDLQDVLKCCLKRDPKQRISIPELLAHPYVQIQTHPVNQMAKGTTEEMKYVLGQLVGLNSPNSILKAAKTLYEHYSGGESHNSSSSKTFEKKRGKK
Procedure: In order to evaluate the inhibitory activity of the compounds according to the present invention on LRRK2, LRRK2 (G2019S), DYRK1, CLK1 and TTK kinases, the following experiment was performed.
Example compounds were reacted with the purified human TTK (Signalchem #T20-10G) enzyme to evaluate the enzyme inhibitory ability as follows. The reaction buffer was used as the composition of 40 mM Tris-HCl pH7.4, 20 mM MgCl2, 0.1 mg/ml BSA (5× kinase buffer, Signalchem #K03-09) and 50 μM DTT (Signalchem #D86-09B), and the reaction of all test materials was performed on the reaction buffer. The compound was diluted with 10 mM DMSO stock in […] by a serial dilution method, and the enzyme activity was measured at the final compound concentrations of 1, 0.333333, 0.111111, 0.037037, 0.012346, 0.004115, 0.001372, 0.000457, 0.000152, 0.000051 and 0.000017 μM. In the test, the human TTK (7.5 ng) enzyme was reacted with the purified ATP (5 μM, Promega #V6930) and an MBP enzyme substrate (0.2 μg, Signalchem M42-51N) at 25° C. for 4 hours, and then the enzyme activity was identified using the in vitro ADP-Glo™ kinase assay (Promega #V6930). The enzyme activity reaction liquid, an ADP-Glo reaction liquid and an enzyme potency detection solution were reacted in a ratio of 2:2:1, and the degree of inhibition of enzyme activity was measured by luminescence. The degree of inhibition of enzyme activity according to the treatment concentrations of the respective compounds was calculated based on the luminescence degree of the enzyme activity of a solvent control group that was not treated with the compound, where the concentration of each compound to inhibit enzyme activity inhibition by 50% was determined as an IC50 (nM) value and obtained using Prism (Version 8.2, GraphPad) software.
as §3

[7] = test system: SHP-77; assay: SHP-77 cancer cell proliferation inhibition (Cell Titer-Glo); format: cell-based; conditions: Homo sapiens, SHP77, SHP-77 small cell lung cancer cell line, 72 hours
Procedure, shortened: as §4

[8] = target: LRRK2 (G2019S) (Homo sapiens, UniProt Q5S007, G2019S); assay: LRRK2 G2019S enzyme inhibition, ADP-Glo kinase assay; format: biochemical; set-up: purchased SignalChem L10-12GG
Chain of LRRK2 (G2019S) (Q5S007 970-2527 G2019S limits assumed): as the sequence (Q5S007 970-2527 limits assumed) above, with G1050S counted along it
Procedure, shortened: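 Purified human LRRK2 G2019S (16 ng) with 25 μM ATP and 0.2 μg substrate, 2 h at 25° C in 40 mM Tris-HCl pH 7.4, 20 mM MgCl2, 0.5 mg/ml BSA, 50 μM DTT; compound at 12 final concentrations from 50 μM downward. ADP-Glo luminescence versus solvent control gave IC50 (nM).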

[9] = target: T4, LRRK2, LRRK2 (G2019S), DYRK1, CLK1 and TTK kinases (Homo sapiens, UniProt P49759); assay: Enzyme IC50 by Kinase HotSpot service (Reaction Biology Corporation), values marked with *; format: biochemical; conditions: CLK1, ATP 10 uM
T4 construct: CLK1 IC50 (marked with *); other: CLK1; Kinase HotSpot service (Reaction Biology), ATP 10 uM
T4 sequence (P49759 whole entry, stated change not applied): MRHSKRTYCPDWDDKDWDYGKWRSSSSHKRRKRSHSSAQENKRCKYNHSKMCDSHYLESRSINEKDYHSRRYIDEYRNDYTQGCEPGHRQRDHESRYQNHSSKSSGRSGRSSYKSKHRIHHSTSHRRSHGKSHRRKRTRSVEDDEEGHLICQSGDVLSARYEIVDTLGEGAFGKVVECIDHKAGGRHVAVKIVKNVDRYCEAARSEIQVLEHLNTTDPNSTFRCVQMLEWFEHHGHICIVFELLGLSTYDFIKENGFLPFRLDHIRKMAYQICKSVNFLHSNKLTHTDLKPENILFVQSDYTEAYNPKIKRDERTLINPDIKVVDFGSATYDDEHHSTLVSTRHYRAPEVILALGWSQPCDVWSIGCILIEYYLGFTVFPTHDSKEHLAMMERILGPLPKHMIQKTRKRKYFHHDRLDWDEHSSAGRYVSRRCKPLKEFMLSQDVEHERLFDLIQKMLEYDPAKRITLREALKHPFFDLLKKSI
Procedure: as §1, §2, §3

[10] = target: T5, LRRK2, LRRK2 (G2019S), DYRK1, CLK1 and TTK kinases (Homo sapiens, UniProt Q5S007); assay: as above; format: biochemical; conditions: LRRK2, ATP 10 uM
T5 construct: LRRK2 IC50 (marked with *); other: LRRK2; Kinase HotSpot service (Reaction Biology), ATP 10 uM
T5 sequence (Q5S007 whole entry G2019S): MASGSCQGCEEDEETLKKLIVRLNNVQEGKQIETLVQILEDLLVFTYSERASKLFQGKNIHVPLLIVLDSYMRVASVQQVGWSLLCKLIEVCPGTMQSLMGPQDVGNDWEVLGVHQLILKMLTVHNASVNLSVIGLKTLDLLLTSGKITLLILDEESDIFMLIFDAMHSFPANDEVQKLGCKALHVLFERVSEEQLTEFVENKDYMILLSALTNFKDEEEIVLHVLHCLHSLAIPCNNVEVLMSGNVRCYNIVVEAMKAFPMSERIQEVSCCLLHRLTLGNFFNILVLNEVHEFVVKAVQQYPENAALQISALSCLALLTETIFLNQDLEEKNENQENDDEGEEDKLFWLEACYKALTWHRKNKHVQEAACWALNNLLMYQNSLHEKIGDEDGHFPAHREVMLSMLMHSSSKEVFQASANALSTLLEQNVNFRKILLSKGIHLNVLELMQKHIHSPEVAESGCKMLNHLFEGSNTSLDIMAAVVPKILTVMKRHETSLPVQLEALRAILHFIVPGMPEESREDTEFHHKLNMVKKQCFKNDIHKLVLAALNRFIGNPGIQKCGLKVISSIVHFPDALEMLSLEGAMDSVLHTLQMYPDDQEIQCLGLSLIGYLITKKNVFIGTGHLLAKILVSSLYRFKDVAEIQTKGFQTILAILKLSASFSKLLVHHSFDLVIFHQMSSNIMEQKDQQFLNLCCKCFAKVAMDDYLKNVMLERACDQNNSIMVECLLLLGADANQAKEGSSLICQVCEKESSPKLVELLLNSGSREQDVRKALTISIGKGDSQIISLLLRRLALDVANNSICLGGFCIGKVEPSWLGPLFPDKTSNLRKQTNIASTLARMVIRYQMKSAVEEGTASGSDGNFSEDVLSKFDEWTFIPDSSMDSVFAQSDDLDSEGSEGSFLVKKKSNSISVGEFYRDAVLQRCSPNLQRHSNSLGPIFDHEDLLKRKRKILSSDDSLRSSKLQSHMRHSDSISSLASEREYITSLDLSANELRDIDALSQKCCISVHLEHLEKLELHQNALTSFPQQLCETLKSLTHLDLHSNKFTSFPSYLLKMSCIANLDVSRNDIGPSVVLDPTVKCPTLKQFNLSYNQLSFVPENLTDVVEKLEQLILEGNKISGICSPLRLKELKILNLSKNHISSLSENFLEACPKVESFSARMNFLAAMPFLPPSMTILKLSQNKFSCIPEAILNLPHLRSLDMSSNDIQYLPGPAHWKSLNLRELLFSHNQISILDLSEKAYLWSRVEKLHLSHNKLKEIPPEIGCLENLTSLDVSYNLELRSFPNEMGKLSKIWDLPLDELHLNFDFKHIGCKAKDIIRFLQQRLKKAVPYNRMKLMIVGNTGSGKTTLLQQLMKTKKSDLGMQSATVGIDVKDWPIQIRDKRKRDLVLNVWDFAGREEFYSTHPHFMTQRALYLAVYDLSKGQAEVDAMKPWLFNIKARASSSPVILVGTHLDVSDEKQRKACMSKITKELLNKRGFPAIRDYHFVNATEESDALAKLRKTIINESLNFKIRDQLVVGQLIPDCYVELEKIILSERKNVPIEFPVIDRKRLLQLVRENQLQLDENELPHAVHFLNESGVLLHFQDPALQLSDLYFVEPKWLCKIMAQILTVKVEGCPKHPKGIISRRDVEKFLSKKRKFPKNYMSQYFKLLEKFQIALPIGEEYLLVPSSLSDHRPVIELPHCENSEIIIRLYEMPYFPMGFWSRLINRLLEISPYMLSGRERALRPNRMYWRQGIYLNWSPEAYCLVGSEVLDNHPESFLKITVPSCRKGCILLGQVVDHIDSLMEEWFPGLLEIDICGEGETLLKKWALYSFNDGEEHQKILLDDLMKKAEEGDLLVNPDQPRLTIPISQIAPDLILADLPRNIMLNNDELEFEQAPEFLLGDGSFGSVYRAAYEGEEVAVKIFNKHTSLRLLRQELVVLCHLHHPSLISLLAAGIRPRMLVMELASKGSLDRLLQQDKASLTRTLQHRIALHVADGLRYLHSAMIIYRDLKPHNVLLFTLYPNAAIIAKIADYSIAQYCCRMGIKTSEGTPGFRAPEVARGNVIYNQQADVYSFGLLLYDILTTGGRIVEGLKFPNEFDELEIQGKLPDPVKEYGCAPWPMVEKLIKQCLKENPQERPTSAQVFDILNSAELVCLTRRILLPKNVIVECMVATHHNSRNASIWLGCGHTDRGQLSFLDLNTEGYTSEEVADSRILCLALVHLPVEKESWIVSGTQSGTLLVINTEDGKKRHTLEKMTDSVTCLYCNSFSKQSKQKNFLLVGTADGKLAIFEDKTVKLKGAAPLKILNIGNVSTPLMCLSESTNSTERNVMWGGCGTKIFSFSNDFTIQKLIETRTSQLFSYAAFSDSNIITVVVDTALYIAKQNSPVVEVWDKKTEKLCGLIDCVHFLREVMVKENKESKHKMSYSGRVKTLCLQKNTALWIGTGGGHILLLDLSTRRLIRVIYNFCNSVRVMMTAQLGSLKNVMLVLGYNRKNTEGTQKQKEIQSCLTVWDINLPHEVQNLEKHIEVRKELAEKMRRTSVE
Procedure: as §1, §2, §3

T1 sequence (P49759 129-484 limits assumed): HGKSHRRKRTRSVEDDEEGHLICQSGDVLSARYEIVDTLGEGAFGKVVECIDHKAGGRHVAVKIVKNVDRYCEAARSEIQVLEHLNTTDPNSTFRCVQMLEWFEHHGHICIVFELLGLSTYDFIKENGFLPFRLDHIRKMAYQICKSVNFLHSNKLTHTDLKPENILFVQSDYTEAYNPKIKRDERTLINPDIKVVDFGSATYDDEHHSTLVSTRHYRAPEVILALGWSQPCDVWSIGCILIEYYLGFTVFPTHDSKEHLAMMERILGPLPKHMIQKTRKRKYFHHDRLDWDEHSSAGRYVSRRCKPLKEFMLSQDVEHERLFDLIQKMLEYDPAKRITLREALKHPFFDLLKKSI

pIC50 [1] | pIC50 [2] | GI50 [3] [µM] | pIC50 [5] | pIC50 [6] | GI50 [7] [µM] | pIC50 [8] | pIC50 [9] | pIC50 [10] | SMILES | inhibition at 0.25 µM [4] [%] | inhibition at 0.5 µM [4] [%] | inhibition at 1 µM [4] [%]
> 7.00 | > 7.00 | 0.301 to 1 | 6.52 to 7.00 |  |  |  |  |  | COc1cc(P2(=O)CCN(C3COC3)CC2)ccc1Nc1cc(C2CC2)c2c(C(F)(F)F)c[nH]c2n1 [Example 47, 4-(4-((4-cyclopropyl-3-(trifluoromethyl)-1H-pyrrolo[2,3-b]pyridin-6-yl)amino)-3-methoxyphenyl)-1-(oxetan-3-yl)-1,4-azaphosphinane 4-oxide] | 3.7 | 15 | 22.4
6.00 to 6.52 | > 7.00 |  |  | > 7.00 |  |  |  |  | O=C(c1ccc(Nc2cc(C3CC3)c3c(C(F)(F)F)c[nH]c3n2)c2c1OCCO2)N1CCN(C2COC2)CC1 [Example 101, (8-((4-cyclopropyl-3-(trifluoromethyl)-1H-pyrrolo[2,3-b]pyridin-6-yl)amino)-2,3-dihydrobenzo[b] [1,4]dioxin-5-yl)(4-(oxetan-3-yl)piperazin-1-yl)methanone] | 9.9 | 11.2 | 20.7
> 7.00 | > 7.00 | < 0.05 | > 7.00 |  | 0.051 to 0.1 | > 7.00 |  |  | COCCNc1cc(Nc2ccc(S(=O)(=O)N3CCC(N4CCOCC4)CC3)cc2OC)nc2[nH]cc(C#N)c12 [Example 140, 6-((2-methoxy-4-((4-morpholinopiperidin-1-yl)sulfonyl)phenyl)amino)-4-((2-methoxyethyl)amino)-1H-pyrrolo[2,3-b]pyridine-3-carbonitrile] |  |  | 
6.00 to 6.52 | > 7.00 |  |  |  |  |  |  |  | COc1cc(P(C)(C)=O)ccc1Nc1cc(C2CC2)c2c(C(F)(F)F)c[nH]c2n1 [Example 219, (4-((4-cyclopropyl-3-(trifluoromethyl)-1H-pyrrolo[2,3-b]pyridin-6-yl)amino)-3-methoxyphenyl) dimethylphosphine oxide] |  |  | 
6.00 to 6.52 | > 7.00 |  | 6.00 to 6.52 |  |  | 6.00 to 6.52 |  |  | COc1cc(S(C)(=O)=O)ccc1Nc1cc(C2CC2)c2c(C(F)(F)F)c[nH]c2n1 [Example 224, 4-cyclopropyl-N-(2-methoxy-4-(methylsulfonyl)phenyl)-3-(trifluoromethyl)-1H-pyrrolo[2,3-b]pyridin-6-amine] |  |  | 
 | > 7.00 | 0.301 to 1 |  |  | 0.301 to 1 | 6.00 to 6.52 | > 7.00 | > 7.00 | COc1cc(S(=O)(=O)N2CCC(N3C[C@H]4C[C@@H]3CO4)CC2)ccc1Nc1cc(C2CC2)c2c(C(F)(F)F)c[nH]c2n1 [Example 239, N-(4-((4-((1R,4R)-2-oxa-5-azabicyclo [2.2.1]heptan-5-yl)piperidin-1-yl)sulfonyl)-2-methoxyphenyl)-4-cyclopropyl-3-(trifluoromethyl)-1H-pyrrolo[2,3-b]pyridin-6-amine] | 22 | 50.9 | 71.2
 | > 7.00 | 0.301 to 1 |  |  | 0.301 to 1 | 6.00 to 6.52 | > 7.00 | > 7.00 | COc1cc(S(=O)(=O)N2CCC(N3C[C@@H]4C[C@H]3CO4)CC2)ccc1Nc1cc(C2CC2)c2c(C(F)(F)F)c[nH]c2n1 [Example 240, N-(4-((4-((1S,4S)-2-oxa-5-azabicyclo[2.2.1]heptan-5-yl)piperidin-1-yl)sulfonyl)-2-methoxyphenyl)-4-cyclopropyl-3-(trifluoromethyl)-1H-pyrrolo[2,3-b]pyridin-6-amine] | 8.9 | 16.5 | 36.3
